Source: paper PMC6422671 (British Journal of Clinical Pharmacology, 2019)

Experiment: Clinical laboratory findings: chemistry; data mean (standard deviation)
Format: in vivo, healthy men
From the text: Data are mean (standard deviation).

With `C[C@@H](N)c1cc(Cl)ccc1Cn1c(=S)[nH]c(=O)c2[nH]ccc21` [AZD4831] the ALP (5 mg fasted, 24 h) was 0.997 (0.210) µkat L^–1, the ALT (5 mg fasted, 24 h) was 0.397 (0.159) µkat L^–1 and the AST (5 mg fasted, 24 h) was 0.370 (0.103) µkat L^–1. The Albumin (5 mg fasted, 24 h) was 42.6 (2.4) g L^–1, the Bilirubin (5 mg fasted, 24 h) was 12.3 (2.6) µmol L^–1 and the CRP (5 mg fasted, 24 h) was 0.38 (0.22) mg L^–1. The Calcium (5 mg fasted, 24 h) was 2.36 (0.04) mmol L^–1, the Creatinine (5 mg fasted, 24 h) was 82.2 (10.3) µmol L^–1 and the GGT (5 mg fasted, 24 h) was 0.288 (0.103) µkat L^–1. For the same compound, the Glucose (5 mg fasted, 24 h) was 4.69 (0.32) mmol L^–1, the Phosphate (5 mg fasted, 24 h) was 1.12 (0.09) mmol L^–1 and the Potassium (5 mg fasted, 24 h) was 4.14 (0.23) mmol L^–1. For the same compound, the Sodium (5 mg fasted, 24 h) was 136.3 (0.8) mmol L^–1, the Urea (5 mg fasted, 24 h) was 4.66 (0.90) mmol L^–1 and the ALP (5 mg fasted, 48 h) was 0.989 (0.186) µkat L^–1. The ALT (5 mg fasted, 48 h) was 0.405 (0.142) µkat L^–1, the AST (5 mg fasted, 48 h) was 0.357 (0.077) µkat L^–1 and the Albumin (5 mg fasted, 48 h) was 43.3 (2.1) g L^–1. The Bilirubin (5 mg fasted, 48 h) was 10.6 (2.3) µmol L^–1, the CRP (5 mg fasted, 48 h) was 0.48 (0.40) mg L^–1 and the Calcium (5 mg fasted, 48 h) was 2.38 (0.04) mmol L^–1. For the same compound, the Creatinine (5 mg fasted, 48 h) was 80.9 (4.7) µmol L^–1, the GGT (5 mg fasted, 48 h) was 0.287 (0.105) µkat L^–1 and the Glucose (5 mg fasted, 48 h) was 4.76 (0.32) mmol L^–1. For the same compound, the Phosphate (5 mg fasted, 48 h) was 0.99 (0.12) mmol L^–1, the Potassium (5 mg fasted, 48 h) was 4.23 (0.16) mmol L^–1 and the Sodium (5 mg fasted, 48 h) was 137.5 (0.6) mmol L^–1. The Urea (5 mg fasted, 48 h) was 4.52 (1.08) mmol L^–1, the ALP (5 mg fasted, follow up) was 1.094 (0.227) µkat L^–1 and the ALT (5 mg fasted, follow up) was 0.407 (0.063) µkat L^–1. For the same compound, the AST (5 mg fasted, follow up) was 0.413 (0.097) µkat L^–1, the Albumin (5 mg fasted, follow up) was 45.3 (1.3) g L^–1 and the Bilirubin (5 mg fasted, follow up) was 12.5 (3.3) µmol L^–1. For the same compound, the CRP (5 mg fasted, follow up) was 1.27 (1.43) mg L^–1, the Calcium (5 mg fasted, follow up) was 2.42 (0.04) mmol L^–1 and the Creatinine (5 mg fasted, follow up) was 84.8 (9.1) µmol L^–1. For the same compound, the GFR (5 mg fasted, follow up) was 98 (15) mL min^–1 1.73m^–2, the GGT (5 mg fasted, follow up) was 0.307 (0.093) µkat L^–1 and the Glucose (5 mg fasted, follow up) was 4.78 (0.68) mmol L^–1. For the same compound, the Phosphate (5 mg fasted, follow up) was 1.11 (0.10) mmol L^–1, the Potassium (5 mg fasted, follow up) was 4.32 (0.22) mmol L^–1 and the Sodium (5 mg fasted, follow up) was 138.4 (1.5) mmol L^–1. For the same compound, the Urea (5 mg fasted, follow up) was 4.57 (1.29) mmol L^–1, the ALP (15 mg fasted, 24 h) was 1.165 (0.364) µkat L^–1 and the ALT (15 mg fasted, 24 h) was 0.475 (0.222) µkat L^–1. For the same compound, the AST (15 mg fasted, 24 h) was 0.394 (0.098) µkat L^–1, the Albumin (15 mg fasted, 24 h) was 43.2 (2.7) g L^–1 and the Bilirubin (15 mg fasted, 24 h) was 14.5 (6.3) µmol L^–1. For the same compound, the CRP (15 mg fasted, 24 h) was 0.53 (0.28) mg L^–1, the Calcium (15 mg fasted, 24 h) was 2.35 (0.11) mmol L^–1 and the Creatinine (15 mg fasted, 24 h) was 76.2 (10.7) µmol L^–1. For the same compound, the GGT (15 mg fasted, 24 h) was 0.504 (0.232) µkat L^–1, the Glucose (15 mg fasted, 24 h) was 4.57 (0.21) mmol L^–1 and the Phosphate (15 mg fasted, 24 h) was 1.14 (0.14) mmol L^–1. The Potassium (15 mg fasted, 24 h) was 4.12 (0.24) mmol L^–1, the Sodium (15 mg fasted, 24 h) was 137.5 (1.0) mmol L^–1 and the Urea (15 mg fasted, 24 h) was 4.35 (0.61) mmol L^–1. The ALP (15 mg fasted, 48 h) was 1.159 (0.329) µkat L^–1, the ALT (15 mg fasted, 48 h) was 0.515 (0.255) µkat L^–1 and the AST (15 mg fasted, 48 h) was 0.406 (0.116) µkat L^–1. For the same compound, the Albumin (15 mg fasted, 48 h) was 44.2 (2.6) g L^–1, the Bilirubin (15 mg fasted, 48 h) was 13.6 (6.0) µmol L^–1 and the CRP (15 mg fasted, 48 h) was 0.62 (0.40) mg L^–1. For the same compound, the Calcium (15 mg fasted, 48 h) was 2.37 (0.10) mmol L^–1, the Creatinine (15 mg fasted, 48 h) was 75.9 (12.3) µmol L^–1 and the GGT (15 mg fasted, 48 h) was 0.501 (0.243) µkat L^–1. The Glucose (15 mg fasted, 48 h) was 4.72 (0.23) mmol L^–1, the Phosphate (15 mg fasted, 48 h) was 1.11 (0.16) mmol L^–1 and the Potassium (15 mg fasted, 48 h) was 4.23 (0.25) mmol L^–1. For the same compound, the Sodium (15 mg fasted, 48 h) was 138.8 (0.8) mmol L^–1, the Urea (15 mg fasted, 48 h) was 4.30 (0.74) mmol L^–1 and the ALP (15 mg fasted, follow up) was 1.240 (0.380) µkat L^–1. For the same compound, the ALT (15 mg fasted, follow up) was 0.504 (0.193) µkat L^–1, the AST (15 mg fasted, follow up) was 0.420 (0.085) µkat L^–1 and the Albumin (15 mg fasted, follow up) was 45.2 (3.1) g L^–1. For the same compound, the Bilirubin (15 mg fasted, follow up) was 11.3 (5.5) µmol L^–1, the CRP (15 mg fasted, follow up) was 1.37 (0.47) mg L^–1 and the Calcium (15 mg fasted, follow up) was 2.38 (0.14) mmol L^–1. For the same compound, the Creatinine (15 mg fasted, follow up) was 78.4 (9.8) µmol L^–1, the GFR (15 mg fasted, follow up) was 114 (12) mL min^–1 1.73m^–2 and the GGT (15 mg fasted, follow up) was 0.534 (0.262) µkat L^–1. For the same compound, the Glucose (15 mg fasted, follow up) was 4.62 (0.45) mmol L^–1, the Phosphate (15 mg fasted, follow up) was 1.15 (0.08) mmol L^–1 and the Potassium (15 mg fasted, follow up) was 4.39 (0.30) mmol L^–1. The Sodium (15 mg fasted, follow up) was 136.9 (1.1) mmol L^–1, the Urea (15 mg fasted, follow up) was 4.79 (1.46) mmol L^–1 and the ALP (45 mg fasted, 24 h) was 1.061 (0.228) µkat L^–1. The ALT (45 mg fasted, 24 h) was 0.329 (0.098) µkat L^–1, the AST (45 mg fasted, 24 h) was 0.293 (0.069) µkat L^–1 and the Albumin (45 mg fasted, 24 h) was 41.6 (2.4) g L^–1. The Bilirubin (45 mg fasted, 24 h) was 12.0 (3.5) µmol L^–1, the CRP (45 mg fasted, 24 h) was 0.77 (0.71) mg L^–1 and the Calcium (45 mg fasted, 24 h) was 2.34 (0.05) mmol L^–1. For the same compound, the Creatinine (45 mg fasted, 24 h) was 75.8 (7.2) µmol L^–1, the GGT (45 mg fasted, 24 h) was 0.315 (0.072) µkat L^–1 and the Glucose (45 mg fasted, 24 h) was 4.90 (0.29) mmol L^–1. For the same compound, the Phosphate (45 mg fasted, 24 h) was 1.17 (0.08) mmol L^–1, the Potassium (45 mg fasted, 24 h) was 4.29 (0.10) mmol L^–1 and the Sodium (45 mg fasted, 24 h) was 139.2 (1.7) mmol L^–1. The Urea (45 mg fasted, 24 h) was 4.25 (0.47) mmol L^–1, the ALP (45 mg fasted, 48 h) was 1.097 (0.257) µkat L^–1 and the ALT (45 mg fasted, 48 h) was 0.319 (0.095) µkat L^–1. For the same compound, the AST (45 mg fasted, 48 h) was 0.288 (0.074) µkat L^–1, the Albumin (45 mg fasted, 48 h) was 42.5 (2.7) g L^–1 and the Bilirubin (45 mg fasted, 48 h) was 12.3 (3.3) µmol L^–1. The CRP (45 mg fasted, 48 h) was 0.58 (0.49) mg L^–1, the Calcium (45 mg fasted, 48 h) was 2.34 (0.05) mmol L^–1 and the Creatinine (45 mg fasted, 48 h) was 73.2 (6.4) µmol L^–1. For the same compound, the GGT (45 mg fasted, 48 h) was 0.312 (0.064) µkat L^–1, the Glucose (45 mg fasted, 48 h) was 5.06 (0.19) mmol L^–1 and the Phosphate (45 mg fasted, 48 h) was 1.12 (0.09) mmol L^–1. The Potassium (45 mg fasted, 48 h) was 4.18 (0.20) mmol L^–1, the Sodium (45 mg fasted, 48 h) was 140.9 (2.2) mmol L^–1 and the Urea (45 mg fasted, 48 h) was 4.24 (0.55) mmol L^–1. For the same compound, the ALP (45 mg fasted, follow up) was 1.165 (0.282) µkat L^–1, the ALT (45 mg fasted, follow up) was 0.324 (0.059) µkat L^–1 and the AST (45 mg fasted, follow up) was 0.356 (0.054) µkat L^–1. For the same compound, the Albumin (45 mg fasted, follow up) was 44.1 (2.6) g L^–1, the Bilirubin (45 mg fasted, follow up) was 12.9 (5.6) µmol L^–1 and the CRP (45 mg fasted, follow up) was 2.89 (5.30) mg L^–1. For the same compound, the Calcium (45 mg fasted, follow up) was 2.35 (0.04) mmol L^–1, the Creatinine (45 mg fasted, follow up) was 74.6 (9.2) µmol L^–1 and the GFR (45 mg fasted, follow up) was 112 (12) mL min^–1 1.73m^–2. The GGT (45 mg fasted, follow up) was 0.300 (0.052) µkat L^–1, the Glucose (45 mg fasted, follow up) was 4.84 (0.54) mmol L^–1 and the Phosphate (45 mg fasted, follow up) was 1.12 (0.20) mmol L^–1. For the same compound, the Potassium (45 mg fasted, follow up) was 4.18 (0.18) mmol L^–1, the Sodium (45 mg fasted, follow up) was 139.5 (1.3) mmol L^–1 and the Urea (45 mg fasted, follow up) was 3.90 (0.63) mmol L^–1.
